In ChEMBL document CHEMBL1667746, “Synthesis, antimicrobial activity and structure-activity relationship study of N,N-dibenzyl-cyclohexane-1,2-diamine derivatives” (Eur J Med Chem, 2011) one finds MIC, Activity and hemolysis data, which are given here for twelve molecules.

A word on the MIC: it is the smallest concentration in the dilution series that meets the test's criterion for growth inhibition.

Calls of active or inactive are those of the source.

In one data set the test system is Nakaseomyces glabratus. Nature of the data set: Antifungal activity against Candida glabrata MTCC 3019 after 24 hrs micro dilution assay. It counts as functional.
The next data set deals with Escherichia coli. Kind of data set: Antibacterial activity against Escherichia coli after 24 hrs micro dilution assay. It counts as functional. As to conditions: Escherichia coli, 24 h; read-out: MIC.
Data set [1] has as its system Staphylococcus epidermidis. Nature of the data set: Antibacterial activity against Staphylococcus epidermidis after 24 hrs micro dilution assay. The conditions noted are these: Staphylococcus epidermidis, 24 h; read-out: MIC. In kind it is functional.
The nature of data set [2]: Toxicity in human RBC assessed as hemolysis at 1024 ug/ml. It counts as cell-based, Erythrocyte. As to conditions: for Activity: erythrocyte; for hemolysis at 1024 ug/ml: red blood cells, read-out: Activity.
In the next data set the test system is Pseudomonas aeruginosa. Kind of data set: Antibacterial activity against Pseudomonas aeruginosa after 24 hrs micro dilution assay. In kind it is functional. The conditions noted are these: Pseudomonas aeruginosa, 24 h; read-out: MIC.
The next data set relates to Candida albicans. Kind of data set: Antifungal activity against Candida albicans MTCC 3017 after 24 hrs micro dilution assay. In kind it is functional.
A further data set deals with Staphylococcus aureus. Kind of data set: Antibacterial activity against Staphylococcus aureus after 24 hrs micro dilution assay. In kind it is functional.
Another data set concerns Geotrichum candidum. Kind of data set: Antifungal activity against Geotrichum candidum NCIM 980 after 24 hrs micro dilution assay. In kind it is functional. As to conditions: NCIM 980, 24 h.
Where [3] appears, read: Staphylococcus aureus, 24 h, read-out: MIC.

`Cl.Fc1cccc(CNC2CCCCC2NCc2cccc(F)c2)c1` (stereo unspecified): the MIC result in the data set on Nakaseomyces glabratus, in the data set on Candida albicans and with Staphylococcus aureus was “inactive” each time. The MIC in the data set on Escherichia coli is 0.25 µg/mL; in data set [1], 0.25 µg/mL; in the data set with Pseudomonas aeruginosa, 0.25 µg/mL; against Geotrichum candidum, 0.5 µg/mL. For the same molecule, the Activity entry in data set [2] is “Non-toxic”.

As for `Cl.Clc1cccc(CNC2CCCCC2NCc2cccc(Cl)c2)c1` (stereo unspecified), the MIC with Nakaseomyces glabratus (MTCC 3019, 24 h) worked out at 0.125 µg/mL; with Escherichia coli, 0.032 µg/mL; in data set [1], 0.032 µg/mL; in the data set on Pseudomonas aeruginosa, 0.008 µg/mL; against Candida albicans (MTCC 3017, 24 h), 0.125 µg/mL; with Staphylococcus aureus (setting [3]), 0.032 µg/mL. Besides, 0.065 µg/mL was the least that counted as inhibitory in the data set on Geotrichum candidum (MIC). Further, in data set [2], the hemolysis at 1024 ug/ml turned out to be 9.68%.

For `Cl.FC(F)(F)c1ccc(CN[C@H]2CCCC[C@@H]2NCc2ccc(C(F)(F)F)cc2)cc1`, the MIC with Nakaseomyces glabratus (MTCC 3019, 24 h) was 0.065 µg/mL; in the data set with Escherichia coli, 0.032 µg/mL; in data set [1], 0.032 µg/mL; in the data set with Pseudomonas aeruginosa, 0.008 µg/mL; against Candida albicans (MTCC 3017, 24 h), 0.125 µg/mL; in the data set on Staphylococcus aureus (setting [3]), 0.016 µg/mL. The MIC in the data set on Geotrichum candidum came to 0.065 µg/mL. Besides, the Activity result in data set [2] is recorded as “Non-toxic”.

On to `Brc1cccc(CNC2CCCCC2NCc2cccc(Br)c2)c1.Cl` (stereo unspecified), for which the MIC in the data set with Nakaseomyces glabratus (MTCC 3019, 24 h) was 0.25 µg/mL; in the data set on Escherichia coli it was 0.065 µg/mL; in data set [1] it was 0.065 µg/mL; in the data set on Pseudomonas aeruginosa, 0.25 µg/mL; with Candida albicans (MTCC 3017, 24 h) it was 0.125 µg/mL; in the data set on Staphylococcus aureus (setting [3]) it was 0.008 µg/mL. In the data set on Geotrichum candidum, the MIC turned out to be 0.065 µg/mL. In data set [2], the Activity entry is recorded as “Non-toxic”.

For the molecule `Brc1ccc(CN[C@H]2CCCC[C@@H]2NCc2ccc(Br)cc2)cc1.Cl`, the MIC in the data set on Nakaseomyces glabratus (MTCC 3019, 24 h) came to 0.032 µg/mL; with Escherichia coli it was 0.008 µg/mL; in data set [1] it was 0.016 µg/mL; in the data set with Pseudomonas aeruginosa, 0.008 µg/mL; with Candida albicans (MTCC 3017, 24 h), 0.065 µg/mL; in the data set with Staphylococcus aureus (setting [3]) it was 0.002 µg/mL. Also, the MIC against Geotrichum candidum was found to be 0.032 µg/mL. In addition, the Activity entry in data set [2] is “Non-toxic”.

As for `Cl.FC(F)(F)c1ccc(CNC2CCCCC2NCc2ccc(C(F)(F)F)cc2)cc1` (stereo unspecified), the MIC was 0.125 µg/mL in the data set on Nakaseomyces glabratus (MTCC 3019, 24 h); 0.032 µg/mL in the data set with Escherichia coli; 0.032 µg/mL in data set [1]; 0.008 µg/mL in the data set on Pseudomonas aeruginosa; 0.125 µg/mL against Candida albicans (MTCC 3017, 24 h); 0.008 µg/mL in the data set with Staphylococcus aureus (setting [3]). Besides, the MIC against Geotrichum candidum worked out at 0.065 µg/mL. Also, the Activity entry in data set [2] is “Non-toxic”.

For the molecule `Cc1ccccc1CNC1CCCCC1NCc1ccccc1C.Cl` (stereo unspecified), the MIC entry in the data set with Nakaseomyces glabratus and in the data set with Candida albicans was “inactive” each time. The MIC turned out to be 0.125 µg/mL with Escherichia coli; 0.25 µg/mL in data set [1]; 0.125 µg/mL with Pseudomonas aeruginosa; 0.25 µg/mL with Staphylococcus aureus (setting [3]); 0.25 µg/mL in the data set with Geotrichum candidum. Further, the Activity entry in data set [2] is “Non-toxic”.

On to `Brc1ccc(CNC2CCCCC2NCc2ccc(Br)cc2)cc1.Cl` (stereo unspecified), for which the MIC against Nakaseomyces glabratus (MTCC 3019, 24 h) is 0.125 µg/mL; in the data set with Escherichia coli, 0.25 µg/mL; in data set [1] it was 0.032 µg/mL; with Pseudomonas aeruginosa it was 0.032 µg/mL; against Candida albicans (MTCC 3017, 24 h), 0.125 µg/mL; in the data set on Staphylococcus aureus (setting [3]) it was 0.016 µg/mL. This molecule had an MIC against Geotrichum candidum of 0.032 µg/mL. The Activity entry in data set [2] is listed as “Non-toxic”.

For the molecule `CCCCc1ccc(CNC2CCCCC2NCc2ccc(CCCC)cc2)cc1.Cl` (stereo unspecified), the MIC in the data set with Nakaseomyces glabratus (MTCC 3019, 24 h) was found to be 0.008 µg/mL; in the data set with Escherichia coli it was 0.008 µg/mL; in data set [1], 0.008 µg/mL; with Pseudomonas aeruginosa, 0.0005 µg/mL; with Candida albicans (MTCC 3017, 24 h), 0.008 µg/mL; with Staphylococcus aureus (setting [3]), 0.008 µg/mL. The molecule further returned an MIC in the data set with Geotrichum candidum of 0.008 µg/mL. Besides, the hemolysis at 1024 ug/ml in data set [2] is 7.68%.

For `CC(C)(C)c1ccc(CNC2CCCCC2NCc2ccc(C(C)(C)C)cc2)cc1.Cl` (stereo unspecified), the MIC against Nakaseomyces glabratus (MTCC 3019, 24 h) amounted to 0.008 µg/mL; in the data set on Escherichia coli, 0.008 µg/mL; in data set [1], 0.008 µg/mL; in the data set with Pseudomonas aeruginosa it was 0.0006 µg/mL; with Candida albicans (MTCC 3017, 24 h), 0.008 µg/mL; with Staphylococcus aureus (setting [3]), 0.004 µg/mL. Besides, the lowest concentration to inhibit growth against Geotrichum candidum (MIC) was 0.008 µg/mL. Moreover, the Activity result in data set [2] was “Non-toxic”.

Turning to `Cl.FC(F)(F)c1cccc(CN[C@H]2CCCC[C@@H]2NCc2cccc(C(F)(F)F)c2)c1`, the MIC against Nakaseomyces glabratus (MTCC 3019, 24 h) stood at 0.125 µg/mL; in the data set with Escherichia coli it was 0.032 µg/mL; in data set [1], 0.065 µg/mL; in the data set with Pseudomonas aeruginosa, 0.008 µg/mL; with Staphylococcus aureus (setting [3]), 0.016 µg/mL; in the data set on Geotrichum candidum it was 0.125 µg/mL. In data set [2], the hemolysis at 1024 ug/ml turned out to be 3.7%. In addition, the MIC entry in the data set with Candida albicans is “inactive”.

On to `CCc1ccc(CNC2CCCCC2NCc2ccc(CC)cc2)cc1.Cl` (stereo unspecified), for which the MIC worked out at 0.032 µg/mL in the data set on Nakaseomyces glabratus (MTCC 3019, 24 h); 0.008 µg/mL with Escherichia coli; 0.008 µg/mL in data set [1]; 0.004 µg/mL in the data set on Pseudomonas aeruginosa; 0.032 µg/mL against Candida albicans (MTCC 3017, 24 h); 0.008 µg/mL in the data set on Staphylococcus aureus (setting [3]). The molecule also had an MIC in the data set with Geotrichum candidum of 0.032 µg/mL. Also, the hemolysis at 1024 ug/ml in data set [2] was 38.3%.
